Data reported in patent US20060135440A1, “Use of ribose to alleviate rhabdomyolysis and the side effects of statin drugs” (priority 2004, published 2006).

Key:
Assay type in all cases: in vivo, human
[1] = test system: statin drug-induced rhabdomyolysis patient; assay: Patient with drug-induced rhabdomyolysis given ribose (case report)
From the text: They were started on a statin drug. Within three months they were diagnosed with rhabdomyolysis resulting in chronic renal failure and symptoms of extreme fatigue and muscle pain. The patient was placed on five grams of ribose, twice daily, after symptoms had persisted for about four months. […] They stayed on the regimen for about three months. Upon cessation of ribose administration, the fatigue and pain slowly returned, but not as severe as had been previously experienced.

[2] = test system: patients with chronic fatigue syndrome or fibromyalgia syndrome; assay: Pre- and post-ribose Visual Analog Scale assessment in chronic fatigue syndrome or fibromyalgia syndrome patients
From the text: There is a cluster of diseases of unknown etiology that share some common symptoms. Included in this cluster are chronic fatigue syndrome, fibromyalgia syndrome and statin-induced myalgia. The most prominent symptoms is pain in the muscles, accompanied by pain in connective tissue (fibromyalgia), sleep disturbance, lack of mental clarity and feelings of well-being. In addition to the patients of Example 1 and 2, who presented with statin-induced myalgia, a mixed cohort of patients having given a physician's diagnosis of chronic fatigue syndrome or fibromyalgia syndrome were given a supply of D-ribose for self administration. Each patient served as his or her control, the results being reported as pre- and post-ribose administration. Compliance was estimated by the amount of the ribose supply remaining. Those patients having administered at least one-half of the 280 grams supply were included in the following summary. A total of 41 subjects were enrolled, of whom five were considered non-compliant and excluded from these analyses. Of the remaining 36 subjects, 78% were female, average age 48 years; 58% and 85% had been previously diagnosed with fibromyalgia and/or chronic fatigue syndrome. Twenty-nine subjects (81%) took a B-complex vitamin daily. The average length of time taking ribose was 25 days. The primary outcome measure was the initial versus final visit Visual Analog Scale (VAS) score: • 1. Visual Analog (well-being) Scale of 1-10 for five questions obtained before the first and after the last dose of ribose. • (A) How is your energy? (1=near dead and 10+excellent) • (B) How is your sleep? (1=no sleep and 10=8 hours of sleep a night without waking. • (C) How is your mental clarity? (1=brain dead and 10=good clarity) • (D) How bad is your pain? (1=very severe pain and 10=pain free) • (F) How is your overall sense of well-being? (1=near dead and 10=excellent) On taking the final dose, the patient was also asked in fill in: “much better, somewhat better, no change, somewhat worse and much worse.” The patients were also asked to comments on benefits or side effects. If they felt better, about how long did it take to feel better? Since the compliance was ascertained only by the amount of ribose remaining, the patients were asked to comment in more detail on their guesstimate of doses missed.

[3] = test system: patients with clinical statin-induced myalgias; assay: Placebo-controlled pilot study of ribose on muscle pain in patients with statin-induced myalgias; conditions: for Severity of symptoms, Mean (sd): scale 1=mild to 5=severe
From the text: Thirty patients aged 20 to 80 years of age presently taking statins and showing clinical statin-induced myalgias were randomized in a six-week placebo-controlled study of the effect of ribose on muscle pain. Fifteen patients were given five grams of ribose twice a day to determine the improvement in clinical symptoms, using an objective patient questionnaire and physician interview. The primary symptom reported was muscle pain, but other symptoms commonly reported included fatigue, poor sleep, a decrease in mental clarity and a reduced sense of well-being. Fifteen patients presently taking statins were given five grams of glucose twice a day as a control. All patients were given a complete history and physical exam. The patient's assessment of muscle pain, soreness or cramping was graded on a scale of one to five, five being the most severe.
Exclusions: Statin-induced myopathy with elevated CPJK over twice normal • Statin-induced hepatopathy with elevated LFTs over twice normal Pregnancy • Insulin-dependant diabetes • Diseases known to be associated with myalgias, such as fibromyalgia, PMR, CTD, genetic or acquired myopathies • New drugs or supplements during the study period
Inclusions: • Patients on any FDA-approved statin at recommended doses. • Constant use of statin dose and any other drugs for at least four weeks prior to study entry
Ribose or glucose were given as a pill or powder and compliance was monitored by pill count or powder measurement on each visit, weekly during the four week study period. A questionnaire was developed to validate the study results.
The severity of symptoms were compared at each follow-up visit. Subjects were asked to rate the severity of symptoms on a scale from 1 to 5; 1=mild and 5=severe.

[4] = person, five grams of ribose twice daily, within one week
[5] = individualized response, ribose n = 12

## O=C[C@H](O)[C@H](O)[C@H](O)CO [Ribose, D-ribose]
[1]; [4]
  fatigue (patient report): greatly reduced
  muscle pain (patient report): gone
[1]; ribose resumed a month after cessation, fatigue and pain had slowly returned
  symptoms after returning to the ribose regimen: again experienced relief of symptoms
[2]; 23 of the 35 patients answering the general question
  patients experiencing at least some improvement during the study: 65.7%
[2]; 36 patients, post-ribose, scale 1-10, pre-ribose 3.8 (1.1), average 25 days on ribose
  VAS Energy, Post- Mean (std): 5.5 (1.5)
[2]; 36 patients, post-ribose, scale 1-10, pre-ribose 4.3 (1.3)
  VAS Well-being, Post- Mean (std): 5.6 (1.5)
[2]; 36 patients, post-ribose, scale 1-10, pre-ribose 4.8 (1.6)
  VAS Sleep, Post- Mean (std): 6.0 (1.9)
[2]; 36 patients, post-ribose, scale 1-10, pre-ribose 4.9 (1.5)
  VAS Mental Clarity, Post- Mean (std): 5.7 (1.7)
[2]; 36 patients, post-ribose, scale 1=very severe pain, 10=pain free, pre-ribose 4.9 (2.3)
  VAS Pain, Post- Mean (std): 5.6 (2.2)
[2]; general question at final dose
  patients reporting no change to somewhat worse than at the beginning of the study: three
[3]; Week 1, n = 15
  Severity of symptoms, Mean (sd): 3.7 (0.8)
[3]; Week 2, n = 13
  Severity of symptoms, Mean (sd): 3.9 (0.8)
[3]; Week 3, n = 12
  Severity of symptoms, Mean (sd): 3.7 (0.8)
[3]; Week 4, n = 12
  Severity of symptoms, Mean (sd): 3.6 (1.0)
[3]; Week 5, wash out period, n = 9
  Severity of symptoms, Mean (sd): 3.4 (1.0)
[3]; Week 6, wash out period, n = 8
  Severity of symptoms, Mean (sd): 3.7 (0.8)
[3]; baseline, scale 1 to 5, placebo group 3.0
  severity of symptoms at baseline: 3.7
[3]; five grams ribose twice a day, 11 of 13 ribose patients, placebo 3 of 14 (21%)
  global assessment of symptom improvement: patients classified as Improved: 85%
[3]; four weeks, 10 of 12 remaining ribose patients, placebo 5 of 14 (36%), p=0.02
  patients reporting a change in symptoms at end of test period: 83%
[3]; [5]
  patients with More than 50% improvement: 36%
  patients with No improvement or worse: 27%
  patients with Some improvement: 73%
[3]; individualized response, ribose n = 12, listed as ribose
  patients with No improvement or worse: 27%
[3]; repeated measures analysis adjusted for baseline severity difference, p=0.35
  average improvement greater than the placebo group: 0.10 units per week
